From ChEMBL document CHEMBL1201862, “PubChem BioAssay data set” (2004)
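48-hour exposure; five concentrations; linearly interpolated endpoints. GI50 is the concentration that inhibits growth by half.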 Active and inactive are the calls of the source. Rule as the data show it: active = GI50 up to about 1.1 µM and inactive = higher.

What was measured:
Test in all cases: DTP human tumour cell line panel, 48 h
HOP-62 = tested on: HOP-62
SW-620 = tested on: SW-620
T47D = tested on: T47D
LOX IMVI = tested on: LOX IMVI
CCRF-CEM = tested on: CCRF-CEM
IGROV-1 = tested on: IGROV-1
Malme-3M = tested on: Malme-3M
MDA-MB-435 = tested on: MDA-MB-435
MCF7 = tested on: MCF7
K562 = tested on: K562
DU-145 = tested on: DU-145
A549 = tested on: A549
SK-MEL-5 = tested on: SK-MEL-5
786-0 = tested on: 786-0
COLO 205 = tested on: COLO 205
M14 = tested on: M14
OVCAR-3 = tested on: OVCAR-3
Hs-578T = tested on: Hs-578T
UACC-62 = tested on: UACC-62
ACHN = tested on: ACHN
NCI/ADR-RES = tested on: NCI/ADR-RES
NCI-H522 = tested on: NCI-H522
HCC 2998 = tested on: HCC 2998
UO-31 = tested on: UO-31
BT-549 = tested on: BT-549
MDA-N = tested on: MDA-N
HCT-116 = tested on: HCT-116
HCT-15 = tested on: HCT-15
SF-268 = tested on: SF-268
OVCAR-8 = tested on: OVCAR-8
MOLT-4 = tested on: MOLT-4
SN12C = tested on: SN12C
RXF 393 = tested on: RXF 393
OVCAR-5 = tested on: OVCAR-5
NCI-H460 = tested on: NCI-H460
CAKI-1 = tested on: CAKI-1
RPMI-8226 = tested on: RPMI-8226
EKVX = tested on: EKVX
HT-29 = tested on: HT-29
HL-60 = tested on: HL-60
UACC-257 = tested on: UACC-257
NCI-H226 = tested on: NCI-H226
PC-3 = tested on: PC-3
SNB-19 = tested on: SNB-19
MDA-MB-231 = tested on: MDA-MB-231
SF-295 = tested on: SF-295
TK-10 = tested on: TK-10
NCI-H23 = tested on: NCI-H23
KM12 = tested on: KM12
SNB-75 = tested on: SNB-75
OVCAR-4 = tested on: OVCAR-4
A498 = tested on: A498
SK-MEL-2 = tested on: SK-MEL-2
HOP-92 = tested on: HOP-92
SK-MEL-28 = tested on: SK-MEL-28
U-251 = tested on: U-251
SK-OV-3 = tested on: SK-OV-3

N=C(Cc1ccccc1)NCC(=O)O
GI50 (HOP-62): > 100 µM (inactive)
GI50 (SW-620): > 100 µM (inactive)
GI50 (T47D): > 100 µM (inactive)
GI50 (LOX IMVI): > 100 µM (inactive)
GI50 (CCRF-CEM): > 100 µM (inactive)
GI50 (IGROV-1): > 100 µM (inactive)
GI50 (Malme-3M): > 100 µM (inactive)
GI50 (MDA-MB-435): > 100 µM (inactive)
GI50 (MCF7): > 100 µM (inactive)
GI50 (K562): > 100 µM (inactive)
GI50 (DU-145): > 100 µM (inactive)
GI50 (A549): > 100 µM (inactive)
GI50 (SK-MEL-5): > 100 µM (inactive)
GI50 (786-0): > 100 µM (inactive)
GI50 (COLO 205): > 100 µM (inactive)
GI50 (M14): > 100 µM (inactive)
GI50 (OVCAR-3): > 100 µM (inactive)
GI50 (Hs-578T): > 100 µM (inactive)
GI50 (UACC-62): > 100 µM (inactive)
GI50 (ACHN): > 100 µM (inactive)
GI50 (NCI/ADR-RES): > 100 µM (inactive)
GI50 (NCI-H522): > 100 µM (inactive)
GI50 (HCC 2998): > 100 µM (inactive)
GI50 (UO-31): > 100 µM (inactive)
GI50 (BT-549): > 100 µM (inactive)
GI50 (MDA-N): > 100 µM (inactive)
GI50 (HCT-116): > 100 µM (inactive)
GI50 (HCT-15): > 100 µM
GI50 (SF-268): > 100 µM (inactive)
GI50 (OVCAR-8): > 100 µM (inactive)
GI50 (MOLT-4): > 100 µM (inactive)
GI50 (SN12C): > 100 µM (inactive)
GI50 (RXF 393): > 100 µM (inactive)
GI50 (OVCAR-5): > 100 µM (inactive)
GI50 (NCI-H460): > 100 µM (inactive)
GI50 (CAKI-1): > 100 µM (inactive)
GI50 (RPMI-8226): > 100 µM (inactive)
GI50 (EKVX): > 100 µM (inactive)
GI50 (HT-29): > 100 µM (inactive)
GI50 (HL-60): > 100 µM (inactive)
GI50 (UACC-257): > 100 µM (inactive)
GI50 (NCI-H226): > 100 µM (inactive)
GI50 (PC-3): > 100 µM (inactive)
GI50 (SNB-19): > 100 µM (inactive)
GI50 (MDA-MB-231): > 100 µM (inactive)
GI50 (SF-295): > 100 µM (inactive)
GI50 (TK-10): > 100 µM (inactive)
GI50 (NCI-H23): > 100 µM (inactive)
GI50 (KM12): > 100 µM (inactive)
GI50 (SNB-75): > 100 µM (inactive)
GI50 (OVCAR-4): > 100 µM (inactive)
GI50 (A498): > 100 µM (inactive)
GI50 (SK-MEL-2): > 100 µM (inactive)
GI50 (HOP-92): > 100 µM (inactive)
GI50 (SK-MEL-28): > 100 µM (inactive)
GI50 (U-251): > 100 µM (inactive)
GI50 (SK-OV-3): > 100 µM (inactive)
